The values that follow come from patent publication US12312354B2, “Selective BTK irreversible inhibitors” (SAN DIEGO STATE UNIVERSITY FOUNDATION, priority 2019, dated 2025).

The structures appear in SMILES notation.

In test [1] the target is BTK (Homo sapiens, UniProt Q06187). Nature of the test: In vitro kinase assay (biochemical), BTK. The note with it: for IC50: in vitro kinase assay; for selectivity for BTK over BLK (BTK/BLK selectivity): ratio of BLK and BTK IC50.
For test [2], the target named is HER2 (Homo sapiens, UniProt P04626). Nature of the test: In vitro kinase assay, HER2. The test is classed as biochemical.
Sequence of HER2 (P04626 23-1255): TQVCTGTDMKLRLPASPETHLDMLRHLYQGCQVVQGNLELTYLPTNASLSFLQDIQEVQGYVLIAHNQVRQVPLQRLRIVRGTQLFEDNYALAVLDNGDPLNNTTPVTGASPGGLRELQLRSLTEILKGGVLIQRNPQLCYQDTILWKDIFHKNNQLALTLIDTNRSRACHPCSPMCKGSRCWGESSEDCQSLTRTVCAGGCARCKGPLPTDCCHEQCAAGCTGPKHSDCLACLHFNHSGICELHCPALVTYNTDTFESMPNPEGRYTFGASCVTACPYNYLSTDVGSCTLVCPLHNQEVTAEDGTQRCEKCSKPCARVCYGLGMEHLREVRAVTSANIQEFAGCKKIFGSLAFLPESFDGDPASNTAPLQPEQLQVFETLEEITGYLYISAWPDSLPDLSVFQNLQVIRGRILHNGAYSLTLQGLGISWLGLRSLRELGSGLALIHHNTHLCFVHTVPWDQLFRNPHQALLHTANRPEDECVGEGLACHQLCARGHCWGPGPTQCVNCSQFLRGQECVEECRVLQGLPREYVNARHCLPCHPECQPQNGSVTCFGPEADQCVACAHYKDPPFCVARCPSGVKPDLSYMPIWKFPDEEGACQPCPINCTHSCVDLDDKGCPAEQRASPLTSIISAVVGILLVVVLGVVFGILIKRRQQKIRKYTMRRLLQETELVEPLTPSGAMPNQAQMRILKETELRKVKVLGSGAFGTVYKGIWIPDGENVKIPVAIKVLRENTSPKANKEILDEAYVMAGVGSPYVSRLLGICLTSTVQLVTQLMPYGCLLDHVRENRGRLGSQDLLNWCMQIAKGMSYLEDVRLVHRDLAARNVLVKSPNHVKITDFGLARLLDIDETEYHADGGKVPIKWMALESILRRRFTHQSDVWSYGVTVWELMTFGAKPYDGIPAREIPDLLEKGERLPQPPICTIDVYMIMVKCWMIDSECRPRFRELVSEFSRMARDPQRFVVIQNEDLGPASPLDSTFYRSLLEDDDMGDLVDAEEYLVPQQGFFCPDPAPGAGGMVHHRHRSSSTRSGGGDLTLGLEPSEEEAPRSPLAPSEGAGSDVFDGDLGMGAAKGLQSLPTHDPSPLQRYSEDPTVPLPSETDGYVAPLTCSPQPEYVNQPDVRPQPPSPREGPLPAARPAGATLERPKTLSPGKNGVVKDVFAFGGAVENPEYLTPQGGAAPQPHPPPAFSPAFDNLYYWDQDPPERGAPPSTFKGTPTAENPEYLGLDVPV
The target in test [3] is BLK (Homo sapiens, UniProt P51451). Nature of the test: In vitro kinase assay, BLK. The test is classed as biochemical.
Sequence of BLK (P51451 whole entry): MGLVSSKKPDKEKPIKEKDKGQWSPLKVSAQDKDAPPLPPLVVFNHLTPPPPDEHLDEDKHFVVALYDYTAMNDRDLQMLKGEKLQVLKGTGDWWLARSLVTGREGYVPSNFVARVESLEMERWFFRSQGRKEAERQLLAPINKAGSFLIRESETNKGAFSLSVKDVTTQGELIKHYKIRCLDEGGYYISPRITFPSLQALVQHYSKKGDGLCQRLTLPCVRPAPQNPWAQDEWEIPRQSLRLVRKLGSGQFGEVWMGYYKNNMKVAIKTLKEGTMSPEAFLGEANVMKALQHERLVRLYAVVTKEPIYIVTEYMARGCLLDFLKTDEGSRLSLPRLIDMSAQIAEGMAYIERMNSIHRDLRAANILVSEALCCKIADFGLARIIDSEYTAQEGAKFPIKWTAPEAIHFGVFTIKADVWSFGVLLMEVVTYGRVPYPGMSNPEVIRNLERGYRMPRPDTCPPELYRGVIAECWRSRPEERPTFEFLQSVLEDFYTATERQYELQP
Test [4] addresses T1, ITK (Homo sapiens, UniProt Q08881).
T1 sequence (Q08881 1-620): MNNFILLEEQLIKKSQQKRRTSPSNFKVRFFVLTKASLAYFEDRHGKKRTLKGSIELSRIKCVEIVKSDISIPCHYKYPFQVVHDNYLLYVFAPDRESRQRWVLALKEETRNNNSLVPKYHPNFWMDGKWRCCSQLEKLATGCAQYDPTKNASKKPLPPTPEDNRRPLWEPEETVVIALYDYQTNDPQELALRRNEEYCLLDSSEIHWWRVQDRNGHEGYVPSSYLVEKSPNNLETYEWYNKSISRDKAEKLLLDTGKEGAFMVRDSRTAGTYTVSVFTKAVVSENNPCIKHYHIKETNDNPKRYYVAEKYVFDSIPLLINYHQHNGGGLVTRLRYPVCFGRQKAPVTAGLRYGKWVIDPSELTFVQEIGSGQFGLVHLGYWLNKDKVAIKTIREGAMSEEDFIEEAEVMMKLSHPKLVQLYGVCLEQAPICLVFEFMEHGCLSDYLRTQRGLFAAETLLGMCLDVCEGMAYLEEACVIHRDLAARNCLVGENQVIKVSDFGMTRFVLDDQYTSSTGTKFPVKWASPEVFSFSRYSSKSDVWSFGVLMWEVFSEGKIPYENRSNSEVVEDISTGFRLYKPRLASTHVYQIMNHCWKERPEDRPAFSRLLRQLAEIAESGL
Nature of the test: In vitro kinase assay, ITK. It is filed as biochemical.

Sequence of BTK (Q06187 whole entry): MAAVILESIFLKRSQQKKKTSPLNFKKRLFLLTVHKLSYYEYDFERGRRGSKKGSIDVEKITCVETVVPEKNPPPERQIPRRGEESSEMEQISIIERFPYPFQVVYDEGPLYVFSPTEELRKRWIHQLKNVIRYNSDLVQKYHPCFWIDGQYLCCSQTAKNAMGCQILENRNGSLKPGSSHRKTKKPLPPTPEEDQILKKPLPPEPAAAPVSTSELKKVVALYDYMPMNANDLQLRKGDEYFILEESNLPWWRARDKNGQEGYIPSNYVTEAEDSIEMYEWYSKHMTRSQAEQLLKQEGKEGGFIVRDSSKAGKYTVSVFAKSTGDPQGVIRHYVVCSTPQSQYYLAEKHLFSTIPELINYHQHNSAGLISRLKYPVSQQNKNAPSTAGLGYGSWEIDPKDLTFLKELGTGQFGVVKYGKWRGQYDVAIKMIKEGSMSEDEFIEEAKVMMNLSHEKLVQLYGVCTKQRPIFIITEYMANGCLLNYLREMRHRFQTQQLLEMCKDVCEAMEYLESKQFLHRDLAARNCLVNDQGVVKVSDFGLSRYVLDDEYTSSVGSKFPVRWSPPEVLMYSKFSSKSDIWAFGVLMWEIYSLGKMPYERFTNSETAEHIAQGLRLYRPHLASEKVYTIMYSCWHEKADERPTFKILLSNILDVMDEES

For orientation: IC50 means the point on the concentration scale where inhibition reaches its midpoint. A high value points to weaker potency in that assay. Consider `C=CC(=O)N1CCC[C@@H](n2cc(-c3ccc(Oc4ccccc4)cc3)c3c(N)ncnc32)C1` (racemic) [Rac], for which the IC50 came out at 0.47 nM in test [1], 451 nM in test [2] and 0.29 nM in test [3].

With `C=CC(=O)N1CCC[C@@H](n2c(C)c(-c3ccc(Oc4ccccc4)cc3C)c3c(N)ncnc32)C1` (single isomer, unassigned) [(Ra)-3.1], the 50% inhibitory concentration (IC50) in test [1] is 3310 nM; in test [2], greater than 10000 nM; in test [3] it was 1810 nM; in test [4] it was greater than 10000 nM.

For `C=CC(=O)N1CCC[C@H](n2c(C)c(-c3ccc(Oc4ccccc4)cc3C)c3c(N)ncnc32)C1` (single isomer, unassigned) [(Ra)-3.2], the “improvement in affinity/potency towards BTK over the diastereomer (Ra, R) / (Ra)-3.1” value in test [1] (fold, BTK IC50 425 nM vs 3307 nM) was 10 ×. The IC50 in test [1] was 425 nM; in test [2], greater than 10000 nM; in test [3], 187 nM; in test [4] it was greater than 10000 nM.

For the molecule `C=CC(=O)N1CCCC(n2c(C)c(-c3ccc(C(=O)Nc4ccccn4)cc3C)c3c(N)ncnc32)C1` (single isomer, unassigned) [(Ra)-3.10], the concentration for half-maximal inhibition (IC50) in test [1] was found to be 24.2 nM; in test [3], 128 nM.

`C=CC(=O)N1CCC[C@@H](n2c(C)c(-c3ccc(Oc4ccccc4)cc3C)c3c(N)ncnc32)C1` (single isomer, unassigned) [(Sa)-3.1]: the IC50 in test [1] is greater than 10000 nM; in test [2] it was greater than 10000 nM; in test [3], 9960 nM; in test [4], greater than 10000 nM.

On to `C=CC(=O)N1CCC[C@H](n2c(C)c(-c3ccc(Oc4ccccc4)cc3C)c3c(N)ncnc32)C1` (single isomer, unassigned) [(Sa)-3.2], for which the IC50 is 3920 nM in test [1], greater than 10000 nM in test [2], 1730 nM in test [3] and greater than 10000 nM in test [4].

As for `C=CC(=O)N1CCCC(n2c(C)c(-c3ccc(C(=O)Nc4ccccn4)cc3C)c3c(N)ncnc32)C1` (single isomer, unassigned) [(Sa)-3.10], the IC50 is 21.7 nM in test [1] and 90.4 nM in test [3].

`C=CC(=O)N1CCC[C@H](n2c(C)c(-c3ccc(Oc4ccccc4)cc3)c3c(N)ncnc32)C1` [3.3]: the IC50 came out at 444 nM in test [1] and 451 nM in test [3].

Turning to `C=CC(=O)N1CCC[C@@H](n2cc(-c3ccc(Oc4ccccc4)cc3)c3c(N)ncnc32)C1` [3.4], the values for the IC50 in test [1] and in test [3] were 2.7 nM and 9.1 nM, respectively.

For `C=CC(=O)N1CCC[C@H](n2cc(-c3ccc(Oc4ccccc4)cc3)c3c(N)ncnc32)C1` [3.5], the IC50 stood at 17.3 nM in test [1] and 55.9 nM in test [3].

Take `C=CC(=O)N1CCC[C@@H](n2cc(-c3ccc(Oc4ccccc4)cc3C)c3c(N)ncnc32)C1` [3.6]: the figures for the IC50 in test [1] and in test [3] were 6.4 nM and 14 nM, respectively. Moreover, the “selectivity for BTK over BLK (BTK/BLK selectivity)” value in test [1] is recorded as “about 2 ×”.

On to `C=CC(=O)N1CCC[C@@H](n2nc(-c3ccc(Oc4ccccc4)cc3C)c3c(N)ncnc32)C1` [3.7], for which the half-inhibitory concentration (IC50) in test [1] came out at 5.5 nM; in test [3] it was 8.4 nM.

Consider `C=CC(=O)N1CCCC(n2nc(-c3c(C)cc(Oc4ccccc4)cc3C)c3c(N)ncnc32)C1` (stereo not shown) [3.8], for which the IC50 in test [1] was 37.4 nM; in test [3], 174 nM.

`C=CC(=O)N1CCCC(n2nc(-c3ccc(C(=O)Nc4ccccn4)cc3C)c3c(N)ncnc32)C1` (stereo not shown) [3.11]: the results for the half-inhibitory concentration (IC50) in test [1] and in test [3] were 1.12 nM and 32.4 nM, respectively. In addition, the “selectivity for BTK over BLK (BTK/BLK selectivity)” value in test [1] is recorded as 30 ×.
